Data taken from article PMC9516332 (Frontiers in Oncology, 2022).
Where two headings read alike, the source gives them in different places.

Key:
Test in all cases: Kinase panel profiling at 1 µmol/L (MSA or IMAP), percentage inhibition
Format in all cases: biochemical
[1] = biological target: T1, panel of 255 wild-type kinases (Homo sapiens, UniProt Q13188); details: read-out: %-inhibition, MST2
T1 sequence (Q13188 1-491): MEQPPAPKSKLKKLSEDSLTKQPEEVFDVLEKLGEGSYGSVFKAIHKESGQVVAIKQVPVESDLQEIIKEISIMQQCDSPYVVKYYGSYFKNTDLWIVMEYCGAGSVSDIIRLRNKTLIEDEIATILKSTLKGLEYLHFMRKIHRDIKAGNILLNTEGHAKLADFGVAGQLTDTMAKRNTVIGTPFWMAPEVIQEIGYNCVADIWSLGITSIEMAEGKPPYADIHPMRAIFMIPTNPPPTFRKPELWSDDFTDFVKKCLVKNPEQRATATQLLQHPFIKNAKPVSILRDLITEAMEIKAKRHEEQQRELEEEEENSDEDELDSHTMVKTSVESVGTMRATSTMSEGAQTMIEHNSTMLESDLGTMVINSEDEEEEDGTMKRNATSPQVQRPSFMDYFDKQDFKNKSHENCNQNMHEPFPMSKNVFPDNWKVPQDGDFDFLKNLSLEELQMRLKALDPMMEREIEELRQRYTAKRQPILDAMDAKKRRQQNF

[2] = biological target: panel of 255 wild-type kinases (Homo sapiens, UniProt P31751); details: read-out: %-inhibition AKT2
[3] = biological target: T2, panel of 255 wild-type kinases (Homo sapiens, UniProt Q16832); details: read-out: %-inhibition at 1 µmol/L, DDR2
T2 sequence (Q16832 22-855): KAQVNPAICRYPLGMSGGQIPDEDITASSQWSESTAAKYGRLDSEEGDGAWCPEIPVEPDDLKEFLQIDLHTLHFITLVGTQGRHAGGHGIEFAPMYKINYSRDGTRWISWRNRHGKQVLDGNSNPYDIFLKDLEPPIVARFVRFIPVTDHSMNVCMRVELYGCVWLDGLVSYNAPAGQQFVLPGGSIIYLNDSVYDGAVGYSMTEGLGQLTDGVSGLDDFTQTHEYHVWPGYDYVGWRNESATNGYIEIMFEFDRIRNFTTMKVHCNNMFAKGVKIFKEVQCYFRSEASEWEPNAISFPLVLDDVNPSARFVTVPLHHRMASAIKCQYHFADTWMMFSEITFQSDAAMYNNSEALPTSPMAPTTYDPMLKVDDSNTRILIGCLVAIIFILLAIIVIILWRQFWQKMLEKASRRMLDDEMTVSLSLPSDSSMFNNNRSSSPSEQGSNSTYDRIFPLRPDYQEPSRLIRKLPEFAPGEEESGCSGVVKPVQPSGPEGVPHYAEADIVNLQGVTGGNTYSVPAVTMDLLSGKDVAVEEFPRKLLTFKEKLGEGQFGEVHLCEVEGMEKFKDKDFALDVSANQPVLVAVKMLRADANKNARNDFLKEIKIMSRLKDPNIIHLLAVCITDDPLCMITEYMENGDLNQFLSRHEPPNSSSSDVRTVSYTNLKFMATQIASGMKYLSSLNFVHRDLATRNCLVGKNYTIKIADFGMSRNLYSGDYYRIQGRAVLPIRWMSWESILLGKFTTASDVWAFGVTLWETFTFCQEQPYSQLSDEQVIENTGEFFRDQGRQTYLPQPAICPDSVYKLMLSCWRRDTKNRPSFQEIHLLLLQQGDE

[4] = biological target: panel of 255 wild-type kinases (Homo sapiens, UniProt P29597); details: read-out: %-inhibition at 1 µmol/L, TYK2
[5] = biological target: T3, panel of 255 wild-type kinases (Homo sapiens, UniProt O15146); details: read-out: %-inhibition, MUSK
T3 sequence (O15146 24-869): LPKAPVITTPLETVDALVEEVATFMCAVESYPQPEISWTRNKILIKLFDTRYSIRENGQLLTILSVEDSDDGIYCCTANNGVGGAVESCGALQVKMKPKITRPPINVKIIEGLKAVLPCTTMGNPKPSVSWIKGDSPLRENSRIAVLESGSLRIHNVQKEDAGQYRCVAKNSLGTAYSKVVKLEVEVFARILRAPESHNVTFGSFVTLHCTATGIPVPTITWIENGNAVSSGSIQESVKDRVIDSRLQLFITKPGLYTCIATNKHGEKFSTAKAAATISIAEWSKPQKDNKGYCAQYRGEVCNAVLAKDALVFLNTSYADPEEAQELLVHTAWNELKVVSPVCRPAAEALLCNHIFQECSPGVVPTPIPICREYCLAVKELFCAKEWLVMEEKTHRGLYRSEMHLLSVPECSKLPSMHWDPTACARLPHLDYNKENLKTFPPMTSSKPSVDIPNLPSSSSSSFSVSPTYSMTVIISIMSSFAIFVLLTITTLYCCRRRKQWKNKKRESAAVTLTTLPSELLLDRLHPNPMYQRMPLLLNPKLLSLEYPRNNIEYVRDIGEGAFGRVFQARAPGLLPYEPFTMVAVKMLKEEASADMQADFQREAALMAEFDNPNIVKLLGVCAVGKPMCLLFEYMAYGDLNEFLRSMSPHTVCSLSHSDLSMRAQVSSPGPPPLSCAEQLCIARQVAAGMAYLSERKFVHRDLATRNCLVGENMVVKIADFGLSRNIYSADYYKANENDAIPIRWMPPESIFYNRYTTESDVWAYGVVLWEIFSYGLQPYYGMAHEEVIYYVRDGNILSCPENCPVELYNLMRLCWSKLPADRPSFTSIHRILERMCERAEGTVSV

[6] = biological target: panel of 255 wild-type kinases (Homo sapiens, UniProt P22612); details: read-out: %-inhibition at 1 µmol/L, PKACγ
[7] = biological target: panel of 255 wild-type kinases (Homo sapiens, UniProt Q86V86); details: read-out: %-inhibition at 1 µmol/L, PIM3
[8] = biological target: panel of 255 wild-type kinases (Homo sapiens, UniProt P29376); details: read-out: %-inhibition at 1 µmol/L, LTK
[9] = MST2, 1 µmol/L single concentration
[10] = AKT2 kinase assay, 1 µmol/L single concentration
[11] = kinase DDR2, 1 µmol/L single concentration
[12] = kinase TYK2, 1 µmol/L single concentration
[13] = MUSK, 1 µmol/L single concentration
[14] = kinase PKACγ, 1 µmol/L single concentration
[15] = kinase PIM3, 1 µmol/L single concentration
[16] = kinase LTK, 1 µmol/L single concentration

Compound | inhibition at 1 µM [1, 9] | inhibition at 1 µM [2, 10] | inhibition at 1 µM [3, 11] | inhibition at 1 µM [4, 12] | inhibition at 1 µM [5, 13] | inhibition at 1 µM [6, 14] | inhibition at 1 µM [7, 15] | inhibition at 1 µM [8, 16] | inhibition at 1 µM [1] | inhibition at 1 µM [2] | inhibition at 1 µM [3] | inhibition at 1 µM [4] | inhibition at 1 µM [5] | inhibition at 1 µM [6] | inhibition at 1 µM [7] | inhibition at 1 µM [8]
Cc1nc(NC(=O)N2CCC[C@H]2C(N)=O)sc1-c1ccnc(C(C)(C)C(F)(F)F)c1 [alpelisib] | 1.52% | -0.795% | 5.45% | -4% | -8% | -7.38% | -13% | -2.85% | – | – | – | – | – | – | – | –
Cn1cc(-c2cc3c(N4CCN(c5ncc([C@@](C)(N)c6ccc(F)cc6)cn5)CC4)ncnn3c2)cn1 [avapritinib] | 0.434% | -0.192% | 98% | 16% | 63% | 4.43% | 9% | 51% | – | – | – | – | – | – | – | –
Cn1cnc2c(F)c(Nc3ccc(Br)cc3F)c(C(=O)NOCCO)cc21 [binimetinib] | -1.64% | 0.0508% | -10% | -4% | -4.46% | -3% | 5% | 0.411% | – | – | – | – | – | – | – | –
CNC(=O)c1ccc(-c2cnc3ncc(Cc4ccc5ncccc5c4)n3n2)cc1F [capmatinib] | – | – | – | – | – | – | – | – | -3.3% | 1.54% | -1% | 0.148% | 1.33% | -1.43% | 1.78% | 49%
COc1cc2ncnc(Nc3ccc(F)c(Cl)c3)c2cc1NC(=O)/C=C/CN1CCCCC1 [dacomitinib] | 2% | -1.19% | 93% | 6.51% | 22% | 12% | 23% | 21% | – | – | – | – | – | – | – | –
C[C@H](Nc1ncnc2nc[nH]c12)c1cc2cccc(Cl)c2c(=O)n1-c1ccccc1 [duvelisib] | 4% | -0.908% | 8% | 2.8% | -4.45% | -4% | -7% | 0.216% | – | – | – | – | – | – | – | –
COC(=O)N[C@@H](C)CNc1nccc(-c2cn(C(C)C)nc2-c2cc(Cl)cc(NS(C)(=O)=O)c2F)n1 [encorafenib] | 3% | 2% | -7% | -6% | -1.72% | -2.32% | 10% | 0.605% | – | – | – | – | – | – | – | –
CN1CCN(c2ccc(C(=O)Nc3n[nH]c4ccc(Cc5cc(F)cc(F)c5)cc34)c(NC3CCOCC3)c2)CC1 [entrectinib] | 35% | -3.69% | 100% | 95% | 100% | -4.58% | -10% | 100% | – | – | – | – | – | – | – | –
CCc1nc(C(N)=O)c(Nc2ccc(N3CCC(N4CCN(C)CC4)CC3)c(OC)c2)nc1NC1CCOCC1 [gilteritinib] | 14% | -4.73% | 99% | 70% | 99% | 5.41% | 23% | 101% | – | – | – | – | – | – | – | –
CCN1CCN(c2ccc(Nc3cc(N(C)C(=O)Nc4c(Cl)c(OC)cc(OC)c4Cl)ncn3)cc2)CC1 [infigratinib] | -2.14% | -0.769% | 63% | -3% | 24% | -0.0435% | 0.254% | 60% | – | – | – | – | – | – | – | –
O=C(Nc1cnn2ccc(N3CCC[C@@H]3c3cc(F)ccc3F)nc12)N1CC[C@H](O)C1 [larotrectinib] | 0.182% | -5.27% | 26% | -0.368% | 32% | -4% | -5.31% | 16% | – | – | – | – | – | – | – | –
C[C@H]1Oc2cc(cnc2N)-c2c(nn(C)c2C#N)CN(C)C(=O)c2ccc(F)cc21 [lorlatinib] | 8% | -2.31% | 21% | 5% | 47% | -6% | -6% | – | – | – | – | – | – | – | – | –
CCN1C(=O)N(c2c(F)c(OC)cc(OC)c2F)Cc2cnc3[nH]c(CN4CCOCC4)cc3c21 [pemigatinib] | 7% | -2.2% | 5% | -6.39% | 2.72% | -3.56% | -8% | 1.66% | – | – | – | – | – | – | – | –
FC(F)(F)c1ccc(CNc2ccc(Cc3c[nH]c4ncc(Cl)cc34)cn2)cn1 [pexidartinib] | 10% | -6% | 90% | 19% | 33% | 3% | 4.68% | 10% | – | – | – | – | – | – | – | –
CO[C@]1(C(=O)N[C@@H](C)c2ccc(-n3cc(F)cn3)nc2)CC[C@H](c2nc(C)cc(Nc3cc(C)[nH]n3)n2)CC1 [pralsetinib] | 5.55% | 0.305% | 102% | 91% | 73% | 10% | -0.165% | 55% | – | – | – | – | – | – | – | –
